The values that follow come from paper PMC5872666, “Stimulation of Dectin-1 and Dectin-2 during Parenteral Immunization, but Not Mincle, Induces Secretory IgA in Intestinal Mucosa” (Journal of Immunology Research, 2018).

Molecules are shown by their SMILES.

The target of this test is T1, ovalbumin (OVA) (Gallus gallus, UniProt P01012).
T1 construct: gene SERPINB14; amine-coupled to CM5 chip
T1 sequence (P01012 2-386): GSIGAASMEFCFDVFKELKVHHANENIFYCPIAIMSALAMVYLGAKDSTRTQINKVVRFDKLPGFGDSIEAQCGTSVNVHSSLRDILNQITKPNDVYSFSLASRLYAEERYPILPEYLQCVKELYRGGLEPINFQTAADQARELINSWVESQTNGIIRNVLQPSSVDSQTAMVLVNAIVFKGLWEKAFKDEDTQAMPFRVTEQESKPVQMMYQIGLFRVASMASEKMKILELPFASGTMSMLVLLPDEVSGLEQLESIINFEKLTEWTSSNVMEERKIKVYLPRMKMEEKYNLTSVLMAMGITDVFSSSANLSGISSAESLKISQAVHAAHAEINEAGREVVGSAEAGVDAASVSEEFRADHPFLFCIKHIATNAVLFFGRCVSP
Description: SPR, Biacore […]. The test is classed as binding. A general note: Surface plasmon resonance follows binding to a sensor surface in real time, without labels.

A word on the Kd: it is the equilibrium constant for the complex coming apart. A low value points to tighter binding. `CCCCCCCCCCCCCCCCCCCCCC(=O)OC[C@H]1O[C@H](O[C@H]2O[C@H](COC(=O)CCCCCCCCCCCCCCCCCCCCC)[C@@H](O)[C@H](O)[C@H]2O)[C@H](O)[C@@H](O)[C@@H]1O` [TDB] showed a Kd of 0.235 nM.
